# Measurements: PubChem BioAssay AID192 (DTP/NCI, 2004)
# “And” between values parts separate entries of the source, which are not always exact repeats. Identical values can stand only once. Inconclusive results and toxic doses are left out. Peptide text beside a SMILES is read from it. * marks the point of attachment. Trt = c1ccc(C(c2ccccc2)(c2ccccc2)*)cc1; Cbz = O=C(OCc1ccccc1)*; Bn = c1ccc(C*)cc1; βAla = NCCC(=O)O
# Tested on: BDF1 mice, B16 melanoma ip, median survival T/C
# Assay: NCI In Vivo Anticancer Drug Screen. Data for tumor model B16 Melanoma (intraperitoneal) in B6D2F1 (BDF1) mice
# Conditions: endpoint: median survival time, higher = longer survival
# How it was run: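 Read-out: survival or tumor size, given as treated/control ratio. Controls received vehicle only; animals bore transplantable tumors.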
# [1] = dose: 200.0 mg/kg/injection, schedule: Q01DX009 (ip), vehicle: saline
# [2] = dose: 50.0 mg/kg/injection, schedule: Q01DX009 (ip), vehicle: saline
# [3] = dose: 100.0 mg/kg/injection, schedule: Q01DX009 (ip), vehicle: saline
# [4] = dose: 50.0 mg/kg/injection, schedule: Q01DX009 (ip), vehicle: Klucel (hydroxypropylcellulose) (HPC)
# [5] = dose: 100.0 mg/kg/injection, schedule: Q01DX009 (ip), vehicle: Klucel (hydroxypropylcellulose) (HPC)
# [6] = dose: 200.0 mg/kg/injection, schedule: Q01DX009 (ip), vehicle: Klucel (hydroxypropylcellulose) (HPC)
# [7] = dose: 400.0 mg/kg/injection, schedule: Q01DX009 (ip), vehicle: Klucel (hydroxypropylcellulose) (HPC)
# [8] = dose: 3.12 mg/kg/injection, schedule: Q01DX009 (ip), vehicle: saline
# [9] = dose: 6.25 mg/kg/injection, schedule: Q01DX009 (ip), vehicle: saline
# [10] = dose: 12.5 mg/kg/injection, schedule: Q01DX009 (ip), vehicle: saline
# [11] = dose: 25.0 mg/kg/injection, schedule: Q01DX009 (ip), vehicle: saline
smiles,measurement,setting,value
CCCCCCCC(=O)N/N=C(\CO)[C@]1(O)Cc2c(O)c3c(c(O)c2[C@@H](OC2CC(N)C(O)C(C)O2)C1)C(=O)c1c(OC)cccc1C3=O (some centres undefined),T/C,"dose: 3.13 mg/kg/injection, schedule: Q01DX001 (ip), vehicle: water",168 % of control
same,T/C,"dose: 6.25 mg/kg/injection, schedule: Q01DX001 (ip), vehicle: water",157 % of control and 200 % of control
same,T/C,"dose: 12.5 mg/kg/injection, schedule: Q01DX001 (ip), vehicle: water",173 % of control and 212 % of control
same,T/C,"dose: 25.0 mg/kg/injection, schedule: Q01DX001 (ip), vehicle: water",174 % of control and 220 % of control and 231 % of control
same,T/C,"dose: 50.0 mg/kg/injection, schedule: Q01DX001 (ip), vehicle: water",91 % of control and 228 % of control and 236 % of control
CC(=O)[O][Pb]([CH2]CC(C)C)([CH2]CC(C)C)[CH2]CC(C)C,T/C,"dose: 0.75 mg/kg/injection, schedule: Q01DX009 (ip), vehicle: Klucel (hydroxypropylcellulose) (HPC)",100 % of control
same,T/C,"dose: 1.5 mg/kg/injection, schedule: Q01DX009 (ip), vehicle: Klucel (hydroxypropylcellulose) (HPC)",86 % of control
CC(C)CC(N)C(=O)OCc1ccccc1 (centres undefined),T/C,"dose: 100.0 mg/kg/injection, schedule: Q04DX003 (ip), vehicle: saline",109 % of control
same,T/C,[1],93 % of control
same,T/C,"dose: 200.0 mg/kg/injection, schedule: Q04DX003 (ip), vehicle: saline",104 % of control
same,T/C,"dose: 400.0 mg/kg/injection, schedule: Q01DX009 (ip), vehicle: saline",91 % of control
same,T/C,"dose: 400.0 mg/kg/injection, schedule: Q04DX003 (ip), vehicle: saline",100 % of control
O=C(SCC(NSc1ccccc1[N+](=O)[O-])C(=O)O)c1ccccc1 (centres undefined),T/C,"dose: 50.0 mg/kg/injection, schedule: Q04DX003 (ip), vehicle: Klucel (hydroxypropylcellulose) (HPC)",113 % of control
same,T/C,"dose: 100.0 mg/kg/injection, schedule: Q04DX003 (ip), vehicle: Klucel (hydroxypropylcellulose) (HPC)",100 % of control
same,T/C,"dose: 200.0 mg/kg/injection, schedule: Q04DX003 (ip), vehicle: Klucel (hydroxypropylcellulose) (HPC)",94 % of control
CCCCCCCCCC(O)CCCCC (centres undefined),T/C,"dose: 75.0 mg/kg/injection, schedule: Q04DX003 (ip), vehicle: saline with Tween-80",102 % of control
same,T/C,"dose: 150.0 mg/kg/injection, schedule: Q04DX003 (ip), vehicle: saline with Tween-80",94 % of control
same,T/C,"dose: 300.0 mg/kg/injection, schedule: Q04DX003 (ip), vehicle: saline with Tween-80",100 % of control
O=P(O)(O)OCC(O)CCl (centres undefined),T/C,[2],110 % of control
same,T/C,[3],103 % of control
same,T/C,[1],103 % of control
COc1cc2ccc(/C=N/NC(N)=S)cc2cc1OC,T/C,"dose: 25.0 mg/kg/injection, schedule: Q01DX009 (ip), vehicle: other",117 % of control
same,T/C,"dose: 50.0 mg/kg/injection, schedule: Q01DX009 (ip), vehicle: other",108 % of control
same,T/C,"dose: 100.0 mg/kg/injection, schedule: Q01DX009 (ip), vehicle: other",109 % of control
same,T/C,"dose: 200.0 mg/kg/injection, schedule: Q01DX009 (ip), vehicle: other",96 % of control
CC(=O)OC1C2(CC3N4C(=O)C5(CO)SSC4(CC31O)C(=O)N5C)OC(C)C(C)(C)C2=O (centres undefined),T/C,"dose: 0.08 mg/kg/injection, schedule: Q01DX009 (ip), vehicle: saline with Tween-80",96 % of control
same,T/C,"dose: 0.16 mg/kg/injection, schedule: Q01DX009 (ip), vehicle: saline with Tween-80",101 % of control
same,T/C,"dose: 0.3 mg/kg/injection, schedule: Q01DX009 (ip), vehicle: saline with Tween-80",88 % of control
same,T/C,"dose: 0.6 mg/kg/injection, schedule: Q01DX009 (ip), vehicle: saline with Tween-80",98 % of control
[O-][n+]1c(CN2CCCCC2)nc2cccc3c2c1-c1ccccc1-3,T/C,[4],102 % of control
same,T/C,[5],119 % of control
same,T/C,[6],113 % of control
CCNCCCOCC,T/C,"dose: 12.5 mg/kg/injection, schedule: Q04DX003 (ip), vehicle: saline",104 % of control
same,T/C,"dose: 25.0 mg/kg/injection, schedule: Q04DX003 (ip), vehicle: saline",102 % of control
same,T/C,"dose: 50.0 mg/kg/injection, schedule: Q04DX003 (ip), vehicle: saline",102 % of control
CCC(=O)Oc1ccc(/C=N/NC(N)=S)nc1,T/C,[2],153 % of control
same,T/C,[3],121 % of control
CC(=O)NNC(=O)c1cnccn1,T/C,"dose: 22.5 mg/kg/injection, schedule: Q01DX009 (ip), vehicle: saline",97 % of control
same,T/C,"dose: 45.0 mg/kg/injection, schedule: Q01DX009 (ip), vehicle: saline",97 % of control
same,T/C,"dose: 90.0 mg/kg/injection, schedule: Q01DX009 (ip), vehicle: saline",90 % of control
O=C(Nc1ccc(Br)cc1)c1ccc(Cl)c(Cl)c1,T/C,[5],118 % of control
same,T/C,[6],114 % of control
same,T/C,[7],114 % of control
CC(=O)CC(c1ccccc1)c1c(O)c2ccccc2oc1=O (centres undefined),T/C,"dose: 0.05 mg/kg/injection, schedule: Q01DX009 (ip), vehicle: saline with Tween-80",107 % of control
same,T/C,"dose: 0.1 mg/kg/injection, schedule: Q01DX009 (ip), vehicle: saline with Tween-80",98 % of control
same,T/C,"dose: 0.2 mg/kg/injection, schedule: Q01DX009 (ip), vehicle: saline with Tween-80",104 % of control
same,T/C,"dose: 0.8 mg/kg/injection, schedule: Q01DX009 (ip), vehicle: saline with Tween-80",90 % of control
CC(=O)[C@H]1CC[C@H]2[C@@H]3CCC4=CC(=O)CC[C@]4(C)[C@H]3CC[C@]12C,T/C,"dose: 12.5 mg/kg/injection, schedule: Q02DX009 (ip), vehicle: Klucel (hydroxypropylcellulose) (HPC)",104 % of control
same,T/C,"dose: 25.0 mg/kg/injection, schedule: Q02DX009 (ip), vehicle: Klucel (hydroxypropylcellulose) (HPC)",96 % of control
same,T/C,"dose: 50.0 mg/kg/injection, schedule: Q02DX009 (ip), vehicle: Klucel (hydroxypropylcellulose) (HPC)",100 % of control
same,T/C,"dose: 100.0 mg/kg/injection, schedule: Q02DX009 (ip), vehicle: Klucel (hydroxypropylcellulose) (HPC)",91 % of control
same,T/C,"dose: 200.0 mg/kg/injection, schedule: Q02DX009 (ip), vehicle: Klucel (hydroxypropylcellulose) (HPC)",120 % of control
same,T/C,"dose: 400.0 mg/kg/injection, schedule: Q02DX009 (ip), vehicle: Klucel (hydroxypropylcellulose) (HPC)",104 % of control
CC1NCCOC1c1ccccc1 (centres undefined),T/C,[8],100 % of control
same,T/C,[9],97 % of control
same,T/C,[10],104 % of control
same,T/C,[11],90 % of control and 124 % of control
same,T/C,[2],90 % of control and 113 % of control
same,T/C,[3],111 % of control
N=C(N)SCc1cccc2c(=O)cc(-c3ccccc3)oc12,T/C,[2],101 % of control
same,T/C,[3],111 % of control
same,T/C,[1],86 % of control
Cn1c2c(sc1=O)CCC2,T/C,[4],113 % of control
same,T/C,[5],100 % of control
same,T/C,[6],97 % of control
Nc1ncnc2c1c1c(N)[nH]nc1n2C1OC(CO)C(O)C1O (centres undefined),T/C,[11],110 % of control
same,T/C,[2],106 % of control
same,T/C,[3],95 % of control
CC(N)Cc1ccc2c(c1)OCO2 (centres undefined),T/C,[8],119 % of control
same,T/C,[9],116 % of control
same,T/C,[10],102 % of control
same,T/C,[11],108 % of control
same,T/C,[2],116 % of control
O=S1(=O)C=Cc2ccccc21,T/C,[4],90 % of control
same,T/C,[5],88 % of control
same,T/C,[6],88 % of control
CSCCC(N)C(=O)O (centres undefined),T/C,"dose: 40.0 mg/kg/injection, schedule: Q01DX009 (ip), vehicle: saline with Tween-80",103 % of control and 106 % of control
same,T/C,"dose: 80.0 mg/kg/injection, schedule: Q01DX009 (ip), vehicle: saline with Tween-80",102 % of control and 108 % of control
same,T/C,"dose: 160.0 mg/kg/injection, schedule: Q01DX009 (ip), vehicle: saline with Tween-80",113 % of control and 118 % of control
same,T/C,"dose: 320.0 mg/kg/injection, schedule: Q01DX009 (ip), vehicle: saline with Tween-80",94 % of control and 100 % of control
O=C(O)C1CC[N-]CC1.O=C(O)C1CC[N-]CC1.O=C(O)C1CC[N-]CC1.O=C(O)C1CC[N-]CC1.[Cl][Rh][Cl],T/C,[11],104 % of control
same,T/C,[2],94 % of control
same,T/C,[3],102 % of control
COC(=O)c1n[nH]c(C(C)C)c1N=NN(C)C,T/C,"dose: 37.5 mg/kg/injection, schedule: Q01DX009 (ip), vehicle: saline with Tween-80",110 % of control
same,T/C,"dose: 75.0 mg/kg/injection, schedule: Q01DX009 (ip), vehicle: saline with Tween-80",115 % of control
COC(=O)C(CSC(c1ccccc1)(c1ccccc1)c1ccccc1)NC(=O)C(CSCc1ccccc1)NC(=O)CCNC(=O)OCc1ccccc1 (centres undefined) ({Cbz-βAla}-Cys(Bn)-Cys(Trt)-OMe; configuration not given here),T/C,"dose: 12.5 mg/kg/injection, schedule: Q01DX009 (ip), vehicle: Klucel (hydroxypropylcellulose) (HPC)",86 % of control
same,T/C,"dose: 25.0 mg/kg/injection, schedule: Q01DX009 (ip), vehicle: Klucel (hydroxypropylcellulose) (HPC)",87 % of control and 92 % of control
same,T/C,[4],89 % of control and 120 % of control
same,T/C,[7],167 % of control
